Measured values from US20020192703A1, “Immunoassay reagents and methods for determination of LSD and LSD metabolites” (priority 1995, published 2002).
Read-outs that look alike come from different tables or passages of the source.

Test system: monoclonal antibody 19A7
Format: binding, mice
Description: Cross-reactivity was tested by spiking various potential cross-reactants into human urine containing a preservative.

[1] = Concentration Added 10,000 ng/ml, 100 × observed dose / concentration added
[2] = Concentration Added 10,000 ng/ml, in human urine
[3] = Concentration Added 500,000 ng/ml, 100 × observed dose / concentration added
[4] = Concentration Added 500,000 ng/ml, in human urine
[5] = Concentration Added 100,000 ng/ml, 100 × observed dose / concentration added
[6] = Concentration Added 100,000 ng/ml, in human urine

CCN(CC)C(=O)[C@@H]1C=C2c3cccc4c3C(O)(C[C@H]2N(C)C1)C(=O)N4 (stereo partly drawn) [2oxo-3hydroxy LSD]
% Cross-Reactivity (Concentration Added 30 ng/ml, 100 × observed dose / concentration added): 1.82%
Concentration Observed (Concentration Added 30 ng/ml, in human urine): 0.55 ng/mL

CCCCCc1cc(O)c2c(c1)OC(C)(C)[C@@H]1CCC(C(=O)O)=C[C@@H]21 [11-nor-Δ^9-THC-COOH]
% Cross-Reactivity [1]: <0.0001%
Concentration Observed [2]: 0.0 ng/mL

CC(=O)Oc1ccccc1C(=O)O [Acetylsalicylic Acid]
% Cross-Reactivity [3]: <0.00001%
Concentration Observed [4]: 0.0 ng/mL

CC(C)C[C@H]1C(=O)N2CCC[C@H]2[C@]2(O)O[C@](NC(=O)[C@@H]3C=C4c5cccc6[nH]cc(c56)C[C@H]4N(C)C3)(C(C)C)C(=O)N12 [Alpha Ergotryptine]
% Cross-Reactivity [3]: 0.00000%
Concentration Observed [4]: 0.25 ng/mL

CC1(C)S[C@@H]2[C@H](NC(=O)[C@H](N)c3ccc(O)cc3)C(=O)N2[C@H]1C(=O)O [Amoxicillin]
% Cross-Reactivity: <0.00001%
Concentration Observed: 0.0 ng/mL

CC(N)Cc1ccccc1 (stereo not drawn) [Amphetamine]
% Cross-Reactivity [3]: <0.00001%
Concentration Observed [4]: 0.0 ng/mL

CN1[C@H]2CC[C@@H]1[C@@H](C(=O)O)[C@@H](OC(=O)c1ccccc1)C2 [Benzoylecgonine]
% Cross-Reactivity [3]: <0.00001%
Concentration Observed [4]: 0.0 ng/mL

C[C@H](CS)C(=O)N1CCC[C@H]1C(=O)O [Captopril]
% Cross-Reactivity [3]: <0.00001%
Concentration Observed [4]: 0.0 ng/mL

CN/C(=N/CCSCc1nc[nH]c1C)NC#N [Cimetidine]
% Cross-Reactivity: <0.00001%
Concentration Observed: 0.0 ng/mL

COc1ccc2c3c1O[C@H]1[C@@H](O)C=C[C@H]4[C@@H](C2)N(C)CC[C@@]341 [Codeine]
% Cross-Reactivity [3]: <0.00001%
Concentration Observed [4]: 0.0 ng/mL

CN1C(=O)CN=C(c2ccccc2)c2cc(Cl)ccc21 [Diazepam]
% Cross-Reactivity: <0.00001%
Concentration Observed: 0.0 ng/mL

C[C@H]1O[C@@H](O[C@H]2[C@@H](O)C[C@H](O[C@H]3[C@@H](O)C[C@H](O[C@H]4CC[C@@]5(C)[C@H](CC[C@@H]6[C@@H]5C[C@@H](O)[C@]5(C)[C@@H](C7=CC(=O)OC7)CC[C@]65O)C4)O[C@@H]3C)O[C@@H]2C)C[C@H](O)[C@@H]1O [Digoxin]
% Cross-Reactivity [5]: <0.00001%
Concentration Observed [6]: 0.0 ng/mL

CN1C[C@H](C(=O)N[C@]2(C)O[C@@]3(O)[C@@H]4CCCN4C(=O)[C@H](Cc4ccccc4)N3C2=O)C[C@@H]2c3cccc4[nH]cc(c34)C[C@H]21 [Dihydroergotaimine]
% Cross-Reactivity (Concentration Added 125,000 ng/ml, 100 × observed dose / concentration added): 0.00005%
Concentration Observed (Concentration Added 125,000 ng/ml, in human urine): ≦0.01 ng/mL

COC(=O)[C@@H]1[C@H]2CC[C@@H](C[C@@H]1O)N2C [Ecogonine Methyl Ester]
% Cross-Reactivity [5]: 0.00000%
Concentration Observed [6]: ≦0.01 ng/mL

CN1[C@H]2CC[C@@H]1[C@@H](C(=O)O)[C@@H](O)C2 [Ecogonine]
% Cross-Reactivity [5]: 0.00000%
Concentration Observed [6]: ≦0.01 ng/mL

CCOC(=O)[C@H](CCc1ccccc1)N[C@@H](C)C(=O)N1CCC[C@H]1C(=O)O [Enalapril]
% Cross-Reactivity [3]: <0.00001%
Concentration Observed [4]: 0.0 ng/mL

C[C@@H](CO)NC(=O)[C@@H]1C=C2c3cccc4[nH]cc(c34)C[C@H]2N(C)C1 [Ergonovine]
% Cross-Reactivity [1]: 0.007%
Concentration Observed [2]: 0.58 ng/mL

CN1C[C@H](C(=O)N[C@]2(C)O[C@@]3(O)[C@@H]4CCCN4C(=O)[C@H](Cc4ccccc4)N3C2=O)C=C2c3cccc4[nH]cc(c34)C[C@H]21 [Ergotamine]
% Cross-Reactivity [5]: 0.00000%
Concentration Observed [6]: ≦0.01 ng/mL

CNCCC(Oc1ccc(C(F)(F)F)cc1)c1ccccc1 (stereo not drawn) [Fluoxetine]
% Cross-Reactivity (Concentration Added 400000 ng/mL, 100 × observed dose / concentration added): 0.00012%
Concentration Observed (Concentration Added 400000 ng/mL, in human urine): 0.48 ng/mL

CC(C)Cc1ccc(C(C)C(=O)O)cc1 (stereo not drawn) [Ibuprofen]
% Cross-Reactivity [3]: <0.00001%
Concentration Observed [4]: 0.0 ng/mL

CCN(CC)C(=O)[C@H]1C=C2c3cccc4[nH]cc(c34)C[C@H]2N(C)C1 [Iso LSD]
% Cross-Reactivity (Concentration Added 2,500 ng/ml, 100 × observed dose / concentration added): 0.04%
Concentration Observed (Concentration Added 2,500 ng/ml, in human urine): 0.93 ng/mL
